Here are results for two compounds from US10517952B2, “Nucleophile-triggered degradable materials and methods of making and using the same” (GEORGIA TECH RESEARCH CORPORATION, priority 2014, dated 2019).

In general, melting point refers to the temperature, or range, at which the solid turns liquid.

A short description of data set [1]: Calculation of hydrogel mesh size from equilibrium swelling data. Type of data set: physicochemical. The settings on record: for Average mesh size: average for equilibrium swelled hydrogels from linkers 7a, 7b and 8; for Calculated mesh size: equilibrium-swollen gels.
Data set [2] is described as follows: Release of entrained cargo from PEG-OND hydrogels. The class given is physicochemical. The method, then: Finally, the diffusion of entrained, rather than covalently anchored, cargos of different sizes out of OND hydrogels of differing stabilities was measured. This was done with a small molecule (carboxyfluorescein), a globular protein (fluorescein-labeled bovine serum albumin, BSA), and a 30-nm protein nanoparticle (fluorescein-labeled bacteriophage Qb virus-like particle). The first and last species have no available thiol groups; the second was reacted with N-ethylmaleimide before gelation to cap cysteine-34 and avoid tethering of the protein cargo to the hydrogel network. Hydrogels derived from 4-PEG-SH and 7a, 7b, or 8 were formed in the presence of each cargo; the speed of this reaction made it highly unlikely that OND connectors were addressed by protein amine groups under these conditions.
Three sets of three 60 μL gels were prepared using linkers 7a, 7b, and 8, respectively. The first set contained 1 mM small molecule probe 5/6-carboxyfluorescein, while the second and third sets contained FITC labeled BSA and Qβ virus-like particle, respectively. The gels were allowed to set for 30 minutes at room temperature before dilution with 3 mL of pH 7.4 100 mM phosphate buffered saline. The samples were incubated at 37° C. and the increase in absorbance of the supernatant at 497 nm was monitored. The fraction of released dye was plotted against incubation time. Least-squares kinetic fitting to a first-order rate law was performed for release profiles obtained for carboxyfluorescein cargo, and for the release of BSA from non-degradable PEG-EONB (8) hydrogel (Solver plug-in, Microsoft Excel).

A short description of data set [3]: Residual hydrogel thiol content with fluorogenic OND probe S-6. The settings on record: for Residual thiols in the gel network, average: average of both sets of gels from linkers 7a and 8, % of input macromer thiol content; for Gel Fraction % Residual Thiol: residual thiol in the gel, % of initial thiol content of input macromer; for Sol Fraction % Residual Thiol: thiol in supernatant, % of input thiol, swelled 18 hours at 4° C., pH 7.4 PBS, probe S-6. The class given is physicochemical. The procedure:
The thiol content of cured hydrogels was determined by swelling gels in the presence of a small fluorogenic OND S-6, which we have previously described in our lab.
This probe reacts with thiols to produce a fluorescent adduct (FIG. 14A). […] Thus, the concentration of reagent S-6 in solution can be determined by quenching with thiol. Similarly, reagent S-6 can be used to quantify thiol in solution.
Based on cargo diffusion studies (see section X of this document), we expected that probe S-6 should easily permeate the hydrogel network under swelling conditions and react with accessible residual thiols present in the gel network. In order to test this hypothesis, 60 μL hydrogels were freshly prepared from 4-PEG-SH macromer and either linkers 8 or 7a as described in section III of this document. After curing for 20 minutes at room temperature, 3 mL of pH 7.4 0.1M PBS buffer containing 200 μM probe S-6 was added, and the gel was swelled at 4° C. for 18 hours. To account for hydrolytic degradation of our thiol probe during incubation, a sample was prepared with S-6 in buffer alone (lacking 4-PEG-SH and bis-OND linkers). After swelling, the gels were observed under long-wave ultraviolet light to reveal strongly fluorescent gels and weakly fluorescent supernatants (FIG. 15). […] Presumably the fluorescence in the supernatant of samples containing gels is due to soluble fraction of 4-PEG-SH macromer and oligomers not incorporated into the gel network.
In order to calculate the amount of residual thiol present in the soluble fraction, aliquots of the supernatant were removed and fluorescence was measured. Thiol content of the soluble fraction was determined by interpolation using the standard curve shown in FIG. 14 after accounting for fluorescence due to hydrolytic degradation. […] This amount corresponds well with the soluble fraction (soluble fraction=1−gel fraction) determined from swelling experiments (see Table 1 of main text). To determine residual thiol content present in gels, aliquots of the supernatant were quenched with a large excess (10 mM) of N-acetyl cysteine and the increase in fluorescence was measured to determine the amount of unreacted S-6 remaining in the supernatant. Accounting for the amount of probe already consumed by reaction with soluble fraction thiols and by hydrolytic degradation, the amount of residual thiol accessible for post-modification present in the gel was calculated as 13.4±1.4% and 10.8±2.4% of the initial thiol content of input macromer (average of 11.8±3.3 for both sets of gels prepared from linkers 7a and 8).

Where “and” joins values, the source holds several entries; their conditions need not be identical. Equal entries are not always repeated.

`COC(=O)C1=C(C(=O)OC)C2(CNC(=O)CCCC(=O)NCC34C=CC(O3)C(C(=O)OC)=C4C(=O)OC)C=CC1O2` [Linker 7a, Tetramethyl 1,1′-((glutaroylbis(azanediyl))bis(methylene))bis(7-oxabicyclo[2.2.1]hepta-2,5-diene-2,3-dicarboxylate)] had a melting point of 163 to 167 °C. In addition, in data set [1], the Average mesh size is reported as 14.0±1.0 nm and the Calculated mesh size is 15.2 ± 0.9 nm. Moreover, in data set [2] (FITC-BSA with ˜0.4 accessible thiols per protein), the “Fraction of BSA tethered to the network / not freely diffusing from the gel” value was roughly 20%. Further, in data set [2] (N-ethylmaleimide-capped FITC-BSA, pH 7.4, 37° C.), the “Release of entrained BSA from the gel compared with more stable matrices” value was “markedly faster”. In data set [3], the “Residual thiols in the gel network, average” value is given as 11.8±3.3%; the “Gel Fraction % Residual Thiol” value turned out to be 10.8±2.4%; the “Sol Fraction % Residual Thiol” value came out at 8.1±3.2%.

In turn, `COC(=O)C1=C(C(=O)OC)C2(CNC(=O)CCCC(=O)NCC34OC(C(C(=O)OC)=C3C(=O)OC)C3OC34)OC1C1OC12` (stereo not drawn) [Linker 8, Tetramethyl 1,1′-((glutaroylbis(azanediyl))bis(methylene))bis(3,8-dioxatricyclo[3.2.1.0^2,4]oct-6-ene-6,7-dicarboxylate)] gave a melting point of 125 to 130 °C. In data set [1], the Average mesh size is on record as 14.0±1.0 nm and the Calculated mesh size is recorded as 14.0 ± 0.9 nm. For the same compound, in data set [2] (pH 7.4, 37° C.), the “Release of entrained Qβ virus-like particles from the gel” value is listed as “not released”. Moreover, in data set [3], the “Residual thiols in the gel network, average” value was 11.8±3.3%; the “Gel Fraction % Residual Thiol” value is 13.4±1.4% and 12.8 ± 2.2%; the “Sol Fraction % Residual Thiol” value turned out to be 2.1±0.4%.
